Data from patent US20260250320A1, “LIPIDATED PEPTIDE INHIBITORS OF INTERLEUKIN-23 RECEPTOR” (Janssen Pharmaceutica NV, priority 2023, published 2026).
*1 amine or outer side, *2 acyl side, *3 side chain or, on linkers, in order; H or OH if unused. Where a SMILES comes first, the peptide text is derived from it. Bridges are numbered along the chain shown (N, C = ends). Side-chain parts run from the residue outwards. [ ]: non-standard residue; d: D form. The star is where a group is joined. Me3N+(CH2)2O(CH2)2O(CH2)2CO = C[N+](C)(C)CCOCCOCCC(=O)*; X24 = O=C(O)CCCCCCCCCCCCCCCCCN[C@@H](CCC(=O)*)C(=O)O; Trp(7-Me) = Cc1cccc2c(C[C@H](N)C(=O)O)c[nH]c12; Hexanoyl(6-NMe3+) = C[N+](C)(C)CCCCCC(=O)*; C18 diacid = O=C(O)CCCCCCCCCCCCCCCCC(=O)*; γGlu = O=C(O)[C@H](CCC(=O)[*:2])N[*:1]; 2Nal = N[C@@H](Cc1ccc2ccccc2c1)C(=O)O; AEF = NCCOc1ccc(C[C@H](N)C(=O)O)cc1; X2 = C[N+](C)(C)C[C@@H](CC(=O)O)N*; 3Pal = N[C@@H](Cc1cccnc1)C(=O)O; Pen = CC(C)(S)[C@H](N)C(=O)O; Suc = O=C(CCC(=O)[*:2])[*:1]; Thp = NC1(C(=O)O)CCOCC1; AEEA = NCCOCCOCC(=O)O; Sar = CNCC(=O)O

Legend:
[1] = biological target: T1, IL-23R (Homo sapiens, UniProt Q5VWK5); experiment: IL23R Reporter Assay; type: cell-based; details: HEK293 cells containing IL-23R, IL-12Rβ1 and STAT-inducible firefly luciferase reporter; 10 ng/mL IL-23 (EC90); 5 h
T1 construct: HEK293 cells containing IL-23R, IL-12Rβ1 and a firefly luciferase reporter gene driven by a STAT-inducible promoter (Promega); host or cells: HEK293
T1 sequence (Q5VWK5 24-629): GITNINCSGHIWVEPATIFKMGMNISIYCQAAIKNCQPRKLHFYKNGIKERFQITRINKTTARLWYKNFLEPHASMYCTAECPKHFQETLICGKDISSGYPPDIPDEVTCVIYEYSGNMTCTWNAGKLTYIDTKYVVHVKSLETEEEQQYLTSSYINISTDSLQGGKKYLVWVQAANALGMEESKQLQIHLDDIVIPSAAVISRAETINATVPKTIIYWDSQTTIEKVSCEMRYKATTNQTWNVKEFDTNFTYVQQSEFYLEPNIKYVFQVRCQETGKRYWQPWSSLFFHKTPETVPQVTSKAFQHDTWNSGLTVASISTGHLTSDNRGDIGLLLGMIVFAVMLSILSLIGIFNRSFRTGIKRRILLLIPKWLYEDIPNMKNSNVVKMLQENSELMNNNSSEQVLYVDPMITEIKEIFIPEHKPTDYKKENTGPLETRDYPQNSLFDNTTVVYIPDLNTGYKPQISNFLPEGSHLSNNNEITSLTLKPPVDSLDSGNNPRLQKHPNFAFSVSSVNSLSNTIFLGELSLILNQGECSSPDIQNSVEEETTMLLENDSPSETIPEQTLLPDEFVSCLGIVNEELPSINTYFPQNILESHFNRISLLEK
How it was run: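 IC50 values were fitted with a 4-parameter Hill equation to luciferase signal, scaled between IL-23-only wells (0% inhibition) and 30 μM reference inhibitor (100%). The readout was a STAT-inducible reporter in IL-23R/IL-12Rβ1 HEK293 cells, stimulated with added 10 ng/mL IL-23 (EC90) for 5 h at 37° C and developed with BioGlo.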

[2] = test system: IL-23-stimulated phosphorylated STAT3 in peripheral blood mononuclear cells (PBMCs); experiment: PBMC pSTAT3 Assay; type: cell-based; details: PBMCs from healthy donors; 30 min preincubation with peptide; IL-23 5 ng/mL for 30 min; phospho-STAT3 by MSD
How it was run: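 Phospho-STAT3 quantified by Meso Scale assay in lysates of PBMCs exposed to IL-23 (5 ng/mL, 30 min, 37 °C) after 30 min peptide pretreatment. Cells were cryopreserved donor PBMCs activated 4 days with anti-CD3 plus IL-1β (100 ng/mL) and starved ~4 h; IC50 reported.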

Row | IC50 [1] [nM] | SMILES | IC50 [2] [nM]
1 | 50 to 500 | Cc1cccc2c(C[C@@H]3NC(=O)[C@H]([C@@H](C)O)NC(=O)[C@H](CC(N)=O)NC(=O)[C@@H](NC(=O)[C@@H](CCCNC(=N)N)NC(=O)CCOCCOCC[N+](C)(C)C)C(C)(C)SSC(C)(C)[C@@H](C(=O)N[C@@H](Cc4ccc(OCCN)cc4)C(=O)N[C@@H](Cc4ccc5ccccc5c4)C(=O)NC4(C(=O)N[C@@H](CCC(=O)O)C(=O)N[C@@H](CC(N)=O)C(=O)N[C@@H](Cc5cccnc5)C(=O)N(C)CC(N)=O)CCOCC4)NC(=O)[C@H](CCCCNC(=O)COCCOCCNC(=O)COCCOCCNC(=O)CC[C@H](NC(=O)CCCCCCCCCCCCCCCCC(=O)O)C(=O)O)NC3=O)c[nH]c12 [compound 72, cPEG3aCO-r-Pen(3)-N-T-7MeW-K(PEG2PEG2C18OH)-Pen(3)-AEF-2Nal-THP-E-N-3Pya-Sar-CONH2] ({Me3N+(CH2)2O(CH2)2O(CH2)2CO}-[dR][Pen]NT[Trp(7-Me)]K([AEEA-AEEA-γGlu-C18 diacid])[Pen][AEF][2Nal][Thp]EN[3Pal][Sar]-NH2; disulfide 2-7) | < 0.5
2 | 50 to 500 | Cc1cccc2c(C[C@@H]3NC(=O)[C@H]([C@@H](C)O)NC(=O)[C@H](CC(N)=O)NC(=O)[C@@H](NC(=O)[C@@H](CCCNC(=N)N)NC(=O)CCCCC[N+](C)(C)C)C(C)(C)SSC(C)(C)[C@@H](C(=O)N[C@@H](Cc4ccc(OCCN)cc4)C(=O)N[C@@H](Cc4ccc5ccccc5c4)C(=O)NC4(C(=O)N[C@@H](CCC(=O)O)C(=O)N[C@@H](CC(N)=O)C(=O)N[C@@H](Cc5cccnc5)C(=O)N(C)CC(N)=O)CCOCC4)NC(=O)[C@H](CCCCNC(=O)COCCOCCNC(=O)COCCOCCNC(=O)CC[C@H](NCCCCCCCCCCCCCCCCCC(=O)O)C(=O)O)NC3=O)c[nH]c12 [compound 71, 5cpaCO-r-Pen(3)-N-T-7MeW-K(PEG2PEG2C18OH)-Pen(3)-AEF-2Nal-THP-E-N-3Pya-Sar-CONH2] ({Hexanoyl(6-NMe3+)}-[dR][Pen]NT[Trp(7-Me)]K([AEEA-AEEA-X24])[Pen][AEF][2Nal][Thp]EN[3Pal][Sar]-NH2; disulfide 2-7) | < 0.5
3 | < 50 | CC(=O)NCCCC[C@@H]1NC(=O)[C@H](Cc2c[nH]c3c(C)cccc23)NC(=O)[C@H]([C@@H](C)O)NC(=O)[C@H](CC(N)=O)NC(=O)[C@@H](NC(C)=O)C(C)(C)SSC(C)(C)[C@@H](C(=O)N[C@@H](Cc2ccc(OCCN)cc2)C(=O)N[C@@H](Cc2ccc3ccccc3c2)C(=O)NC2(C(=O)N[C@@H](CCCCNC(C)=O)C(=O)N[C@@H](CC(N)=O)C(=O)N[C@@H](Cc3cccnc3)C(=O)N(C)CC(=O)N[C@@H](CCCCNC(=O)CCOCCOCCOCCOCCOCCOCCOCCOCCOCCOCCOCCOCCNC(=O)CC[C@H](NC(=O)CCCCCCCCCCCCCCCCCCC(=O)O)C(=O)O)C(N)=O)CCOCC2)NC1=O [compound 101, MeCO-Pen(3)-N-T-7MeW-K(Ac)-Pen(3)-AEF-2Nal-THP-K(Ac)-N-3Pya-Sar-K(PEG12gEC20OH)-CONH2] | < 0.5
4 | < 50 | CC(=O)NCCCC[C@@H]1NC(=O)[C@H](Cc2c[nH]c3c(C)cccc23)NC(=O)[C@H]([C@@H](C)O)NC(=O)[C@H](CC(N)=O)NC(=O)[C@@H](NC(=O)[C@@H](CCCNC(=N)N)NC(C)=O)C(C)(C)SSC(C)(C)[C@@H](C(=O)N[C@@H](Cc2ccc(OCCNC(=O)CCC(=O)N[C@H](CC(=O)O)C[N+](C)(C)C)cc2)C(=O)N[C@@H](Cc2ccc3ccccc3c2)C(=O)NC2(C(=O)N[C@@H](CCCCNC(=O)COCCOCCNC(=O)COCCOCCNC(=O)CC[C@H](NC(=O)CCCCCCCCCCCCCCCCC(=O)O)C(=O)O)C(=O)N[C@@H](CC(N)=O)C(=O)N[C@@H](Cc3cccnc3)C(=O)N(C)CC(N)=O)CCOCC2)NC1=O [compound 22, MeCO-r-Pen(3)-N-T-7MeW-K(Ac)-Pen(3)-AEF(d)-2Nal-THP-K(PEG2PEG2gEC18OH)-N-3Pya-Sar-CONH2] (Ac-[dR][Pen]NT[Trp(7-Me)]K(Ac)[Pen][AEF]([Suc-X2])[2Nal][Thp]K([AEEA-AEEA-γGlu-C18 diacid])N[3Pal][Sar]-NH2; disulfide 2-7) | < 0.5
